How the values were obtained:
Type in all cases: cell-based
[1] = tested on: MDAs; experiment: Ca2+ signaling with genetically encoded Ca2+ sensor GCamp6f; conditions: GCamp6f-expressing MDAs (data not shown)
From the text: (§1) Therefore, to begin to characterize the MOA of ISX9 in CSCs, it was first determined whether ISX9 treatment of CSCs triggered Ca^2+ signaling. MDAs were transduced to express the genetically encoded Ca^2+ sensor GCamp6f and treated with vehicle, ionomycin (positive control), or ISX9 (data not shown). […] FIG. 5 depicts Ca^2+ response of MDAs to ISX9 treatment. Scale bar=250 μm.

[2] = tested on: MDA-MB-231s; experiment: CD24 mRNA expression in 2D (differentiation screening); conditions: 200 μM, 48h, FCthreshold=2.0
Method: FIG. 3H depicts relative CD24 mRNA expression. CD24 expression was an early indicator of response to ISX9 in 2D across several TNBC cell lines. Treatment screening of several different TNBC cell lines with ISX9 in 2D for 48h yielded four responders, as determined by CD24 mRNA expression (FIG. 3H).
These analogs were screened for their potential to differentiate MDA-MB-231s, yielding at least one new hit, CR-1 (˜98% similarity), which induced a ˜6-fold upregulation of CD24 at a concentration of 200 μM at 48h in 2D (FIG. 6).

[3] = tested on: CSCs; experiment: phenotypic effects in CSCs (MOA controls); conditions: compared to ISX9 (data not shown)
From the text: as §1

[4] = tested on: MDAs; experiment: invasion distances of MDAs in HD Col1 treated with GSIs; conditions: HD Col1, vs vehicle (0.1% DMSO)
From the text: Therefore, this example assessed what effect GSIs would have on MDAs in HD Col1. […] FIG. 3C depicts invasion distances of MDAs in HD Col1 treated with vehicle (0.1% DMSO) or GSIs DAPT and MK0752.

[5] = tested on: MDA-MB-231 cells; experiment: western blot of acetylation of histones H3 and H4; conditions: 2D- and 3D-treated cells, 24 hours
From the text: Also identified was the fact that a similar increase in acetylation was found in patient-derived organoid models. […] Acetylation and deactylation of histones H3 and H4 are typically orchestrated by Histone Acetyltransferases (HATs), including the several HAT subfamilies, as well as HDACs (see, e.g., Marmorstein, R. et al. Cold Spring Harb. Perspect. Biol. 6, a018762 (2014)). Not wishing to be bound by any particular theory, Isx9 may bind directly to HATs and/or HDACs in order to activate histone acetylation and drive induction of MET and/or CSC differentiation.

Structure (SMILES): C[C@H](CCC(=O)O)C[C@H](C)C[C@H](C)C(=O)/C=C(\O)[C@H](C)C[C@H](C)C/C=C/[C@@H](C)[C@@H](O)[C@@H](C)[C@@H](O)C[C@@H]1CC[C@@](C)([C@H]2CC[C@@](C)([C@@H](C)O)O2)O1 [ionomycin, reference compound]
- Ca2+ signal [1]: observed

Structure (SMILES): CC(C)NC(=O)c1cc(-c2cccs2)on1 [CR-1]
- upregulation of CD24 [2]: ~6 fold

Structure (SMILES): CN[C@H](CC(=O)O)C(=O)O [NMDA, N-Methyl-D-aspartate]
- phenotypic effects [3]: no phenotypic effects

Structure (SMILES): C[C@H](NC(=O)Cc1cc(F)cc(F)c1)C(=O)N[C@H](C(=O)OC(C)(C)C)c1ccccc1 [DAPT]
- inhibition of the CINP / tumor cell invasion [4]: did not inhibit the CINP, but rather slightly promoted tumor cell invasion

Structure (SMILES): O=C(O)CC[C@H]1CC[C@@](c2cc(F)ccc2F)(S(=O)(=O)c2ccc(Cl)cc2)CC1 [MK0752]
- inhibition of the CINP / tumor cell invasion [4]: did not inhibit the CINP, but rather slightly promoted tumor cell invasion

Structure (SMILES): CC(/C=C/C(=O)NO)=C\[C@@H](C)C(=O)c1ccc(N(C)C)cc1 [TSA, reference compound]
- acetylation of histones H3 and H4 [5]: similarly induced H3/H4 acetylation
